Assay results: ChEMBL document CHEMBL5576052, “Design, synthesis, and biological evaluation of new bis-benzylisoquinoline-based analogues as potential neuromuscular blocking agents” (Bioorg Med Chem Lett, 2024)

Key:
Format in all cases: functional
Oryctolagus cuniculus [1] = assay: Neuromuscular blocking in rabbit model of propofol-induced anesthesia assessed as onset time at 27.27 nmol/kg by train-of-four response method
Oryctolagus cuniculus [2] = assay: Neuromuscular blocking in rabbit model of propofol-induced anesthesia assessed as maximal blockade at 27.27 nmol/kg by train-of-four response method relative to control
Oryctolagus cuniculus [3] = assay: Neuromuscular blocking in rabbit model of propofol-induced anesthesia assessed as duration of time for maximal blockade at 27.27 nmol/kg by train-of-four response method
Oryctolagus cuniculus [4] = assay: Neuromuscular blocking in rabbit model of propofol-induced anesthesia assessed as effective blocking time by measuring duration from administration to 25 percent recovery at 27.27 nmol/kg by train-of-four response method
Oryctolagus cuniculus [5] = assay: Neuromuscular blocking in rabbit model of propofol-induced anesthesia assessed as time duration of 25 to 75 percent recovery indices at 27.27 nmol/kg by train-of-four response method
Oryctolagus cuniculus [6] = assay: Neuromuscular blocking in rabbit model of propofol-induced anesthesia assessed as time duration of 25 to 90 percent recovery indices at 27.27 nmol/kg by train-of-four response method
Oryctolagus cuniculus [7] = assay: Neuromuscular blocking in rabbit model of propofol-induced anesthesia assessed as onset time at 272.7 nmol/kg by train-of-four response method
Oryctolagus cuniculus [8] = assay: Neuromuscular blocking in rabbit model of propofol-induced anesthesia assessed as maximal blockade at 272.7 nmol/kg by train-of-four response method relative to control
Oryctolagus cuniculus [9] = assay: Neuromuscular blocking in rabbit model of propofol-induced anesthesia assessed as duration of time for maximal blockade at 272.7 nmol/kg by train-of-four response method
Oryctolagus cuniculus [10] = assay: Neuromuscular blocking in rabbit model of propofol-induced anesthesia assessed as effective blocking time by measuring duration from administration to 25 percent recovery at 272.7 nmol/kg by train-of-four response method
Oryctolagus cuniculus [11] = assay: Neuromuscular blocking in rabbit model of propofol-induced anesthesia assessed as time duration of 25 to 75 percent recovery indices at 272.7 nmol/kg by train-of-four response method
Oryctolagus cuniculus [12] = assay: Neuromuscular blocking in rabbit model of propofol-induced anesthesia assessed as time duration of 25 to 90 percent recovery indices at 272.7 nmol/kg by train-of-four response method
Oryctolagus cuniculus [13] = assay: Neuromuscular blocking in rabbit model of propofol-induced anesthesia assessed as time duration of 25 to 75 percent recovery indices at 0.06 mg/kg of inductive dose with continuous infusion of compound measured for 0.5 hrs by train-of-four response method
Oryctolagus cuniculus [14] = assay: Neuromuscular blocking in rabbit model of propofol-induced anesthesia assessed as time duration of 75 to 90 percent recovery indices at 0.06 mg/kg of inductive dose with continuous infusion of compound measured for 0.5 hrs by train-of-four response method
Oryctolagus cuniculus [15] = assay: Neuromuscular blocking in rabbit model of propofol-induced anesthesia assessed as time duration of 25 to 90 percent recovery indices at 0.06 mg/kg of inductive dose with continuous infusion of compound measured for 0.5 hrs by train-of-four response method
Oryctolagus cuniculus [16] = assay: Neuromuscular blocking in rabbit model of propofol-induced anesthesia assessed as time duration of 25 to 75 percent recovery indices at 0.06 mg/kg of inductive dose with continuous infusion of compound measured for 1 hr by train-of-four response method
Oryctolagus cuniculus [17] = assay: Neuromuscular blocking in rabbit model of propofol-induced anesthesia assessed as time duration of 75 to 90 percent recovery indices at 0.06 mg/kg of inductive dose with continuous infusion of compound measured for 1 hr by train-of-four response method
Oryctolagus cuniculus [18] = assay: Neuromuscular blocking in rabbit model of propofol-induced anesthesia assessed as time duration of 25 to 90 percent recovery indices at 0.06 mg/kg of inductive dose with continuous infusion of compound measured for 1 hr by train-of-four response method
Oryctolagus cuniculus [19] = assay: Neuromuscular blocking in rabbit model of propofol-induced anesthesia assessed as time duration of 25 to 75 percent recovery indices at 0.06 mg/kg of inductive dose with continuous infusion of compound measured for 2 hrs by train-of-four response method
Oryctolagus cuniculus [20] = assay: Neuromuscular blocking in rabbit model of propofol-induced anesthesia assessed as time duration of 75 to 90 percent recovery indices at 0.06 mg/kg of inductive dose with continuous infusion of compound measured for 2 hrs by train-of-four response method
Oryctolagus cuniculus [21] = assay: Neuromuscular blocking in rabbit model of propofol-induced anesthesia assessed as time duration of 25 to 90 percent recovery indices at 0.06 mg/kg of inductive dose with continuous infusion of compound measured for 2 hrs by train-of-four response method
Oryctolagus cuniculus [22] = assay: Neuromuscular blocking in rabbit model of propofol-induced anesthesia assessed as time duration of 25 to 75 percent recovery indices at 0.33 mg/kg of inductive dose with continuous infusion of compound measured for 0.5 hrs by train-of-four response method
Oryctolagus cuniculus [23] = assay: Neuromuscular blocking in rabbit model of propofol-induced anesthesia assessed as time duration of 75 to 90 percent recovery indices at 0.33 mg/kg of inductive dose with continuous infusion of compound measured for 0.5 hrs by train-of-four response method
Oryctolagus cuniculus [24] = assay: Neuromuscular blocking in rabbit model of propofol-induced anesthesia assessed as time duration of 25 to 90 percent recovery indices at 0.33 mg/kg of inductive dose with continuous infusion of compound measured for 0.5 hrs by train-of-four response method

| Compound | Time (Oryctolagus cuniculus [1]) | Emax at 0.02727 µmol/kg (Oryctolagus cuniculus [2]) | Time (Oryctolagus cuniculus [3]) | Time (Oryctolagus cuniculus [4]) | Time (Oryctolagus cuniculus [5]) | Time (Oryctolagus cuniculus [6]) | Time (Oryctolagus cuniculus [7]) | Emax at 0.2727 µmol/kg (Oryctolagus cuniculus [8]) | Time (Oryctolagus cuniculus [9]) | Time (Oryctolagus cuniculus [10]) | Time (Oryctolagus cuniculus [11]) | Time (Oryctolagus cuniculus [12]) | Time (Oryctolagus cuniculus [13]) | Time (Oryctolagus cuniculus [14]) | Time (Oryctolagus cuniculus [15]) | Time (Oryctolagus cuniculus [16]) | Time (Oryctolagus cuniculus [17]) | Time (Oryctolagus cuniculus [18]) | Time (Oryctolagus cuniculus [19]) | Time (Oryctolagus cuniculus [20]) | further results |
| --- | --- | --- | --- | --- | --- | --- | --- | --- | --- | --- | --- | --- | --- | --- | --- | --- | --- | --- | --- | --- | --- |
| COc1cc2c(cc1OC)[C@@H](Cc1cc(OC)c(OC)c(OC)c1)[N@+](C)(CCCOC(=O)CC/C=C/CCC(=O)OCCC[N@+]1(C)CCc3cc(OC)c(OC)cc3[C@H]1Cc1cc(OC)c(OC)c(OC)c1)CC2.[Cl-].[Cl-] | 1.88 min | 100% | 4.25 min | 5.58 min | 9.22 min | 15.08 min | 0.67 min | 100% | 14.67 min | 19.58 min | 11.25 min | 13.92 min | 7.13 min | 3.6 min | 10.73 min | 6.96 min | 2.67 min | 9.63 min | 4.58 min | 3.17 min | Time (Oryctolagus cuniculus [21]): 7.75 min |
| COc1cc2c(cc1OC)[C@@H](Cc1cc(OC)c(OC)c(OC)c1)[N+](C)(CCC(=O)OC/C=C\COC(=O)CC[N+]1(C)CCc3cc(OC)c(OC)cc3[C@H]1Cc1cc(OC)c(OC)c(OC)c1)CC2.O=S(=O)([O-])c1ccccc1.O=S(=O)([O-])c1ccccc1 (stereo partly drawn) |  |  |  |  |  |  | 1.67 min | 100% | 8.25 min | 11.83 min | 7.5 min | 10.25 min |  |  |  |  |  |  |  |  | Time (Oryctolagus cuniculus [22]): 8 min; Time (Oryctolagus cuniculus [23]): 3.17 min; Time (Oryctolagus cuniculus [24]): 11.17 min |
| COc1cc2c(cc1OC)[C@@H](Cc1cc(OC)c(OC)c(OC)c1)[N@@+](C)(CCCOC(=O)CC/C=C/CCC(=O)OCCC[N@+]1(C)CCc3cc(OC)c(OC)cc3[C@H]1Cc1cc(OC)c(OC)c(OC)c1)CC2.[Cl-].[Cl-] (mixture of isomers) | 3.58 min | 80% | 1.92 min |  | 4.92 min | 8.92 min | 0.83 min | 100% | 21.42 min | 24.5 min | 10.5 min | 13.42 min | 6.9 min | 4.2 min | 11.1 min | 7.08 min | 5.33 min | 12.42 min |  |  |  |
| COc1cc2c(cc1OC)[C@@H](Cc1cc(OC)c(OC)c(OC)c1)[N+](C)(CCCOC(=O)CC/C=C/CCC(=O)OCCC[N+]1(C)CCc3cc(OC)c(OC)cc3[C@H]1Cc1cc(OC)c(OC)c(OC)c1)CC2.[Cl-].[Cl-] (stereo partly drawn) [MIVACURIUM CHLORIDE] | 1.58 min | 100% | 4.42 min | 7.92 min | 7.75 min | 11.42 min | 0.79 min | 100% | 15.79 min | 18.57 min | 6.54 min | 9.71 min | 8 min | 3.5 min | 11.5 min | 8.5 min | 3.29 min | 11.79 min | 4.92 min | 4.83 min | Time (Oryctolagus cuniculus [21]): 9 min |
